Data: patent US20260215432A1, “ANTIMICROBIAL CONJUGATED OLIGOELECTROLYTES AND METHODS THEREOF” (National University of Singapore, priority 2023, published 2026)
Converted amounts (≈) assume the structure as drawn. “And” between values parts separate entries of the source, which are not always exact repeats. Equal values may be shown once. Read-outs that look alike come from different tables or passages of the source.

Key:
[1] = system: M. abscesses (ATCC 19977); assay: MIC against mycobacterium in Middlebrook 7H9 broth; type: cell-based, M. abscessus; details: for MIC: Mycobacteroides abscessus, ATCC19977
Procedure: We also examined non-tuberculous mycobacteria (NTM). These are opportunistic pathogens that are rising in clinical significance due to their increasing prevalence and treatment difficulty. The membrane of Mycobacterium is inherently a greater antibiotic permeability barrier due to its high lipid content relative to other pathogens and long-tailed mycolic acids that contributed to its high lipophilic character. The antimicrobial activity of the TPP analogues were also evaluated against Mycobacterium in Middlebrook 7H9 broth.

[2] = system: A549 (lung epithelial cells); assay: Cytotoxicity against mammalian cell line; type: cell-based
Procedure: The cytotoxicity of the TPP COEs was also tested against a mammalian cell line (A549).

[3] = system: S. aureus (ATCC 29213); assay: MIC, broth microdilution in CA-MHB; type: cell-based
Procedure: (§1) Antimicrobial activity was screened against a range of pathogens made up of clinically relevant ESKAPE pathogens by determination of the minimum inhibitory concentration (MIC) in cation-adjusted Mueller-Hinton broth (CA-MHB).
(§2) Minimum inhibitory concentrations of COEs were determined through a broth microdilution method in accordance with the Clinical and Laboratory Standards Institute (CLSI) guidelines M07-A10. A single bacterial colony was isolated from an overnight culture and grown to mid-log phase (OD600~0.8). Compounds were prepared as a stock solution in DMSO and diluted in a sterile flat-bottom 96-well plate in CA-MHB. Subsequent concentrations were prepared by two-fold dilution of the initial solution. An equivalent volume of bacteria was added to the compound to a final concentration of 5×10^5 cfu/mL. Plates were incubated at 37° C. for 16-18 hours, and read at OD600 using a microplate reader (TECAN Spark®). […] MIC values were determined for each compound in triplicate.

[4] = system: A. baumanii (ATCC 17978); assay: MIC, broth microdilution in CA-MHB; type: cell-based; details: for MIC AB: CA-MHB
Procedure: as §1, §2

[5] = system: E. coli. K12 (ATCC 10798); assay: MIC, broth microdilution in CA-MHB; type: cell-based; details: for MIC EC: CA-MHB
Procedure: as §1, §2

[6] = system: E. facium (ATCC 19434); assay: MIC, broth microdilution in CA-MHB; type: cell-based; details: for MIC FAC: CA-MHB
Procedure: as §1, §2

[7] = system: K. pneumoniae (carbapenem-resistant Enterobacterales) (ATCC BAA1705); assay: MIC, broth microdilution in CA-MHB; type: cell-based; details: CA-MHB
Procedure: as §1, §2

[8] = system: Methicillin-resistant S. aureus (ATCC BAA1717); assay: MIC, broth microdilution in CA-MHB; type: cell-based; details: for MIC MRSA: CA-MHB
Procedure: as §1, §2

[9] = system: P. aeruginosa (ATCC47085); assay: MIC, broth microdilution in CA-MHB; type: cell-based; details: CA-MHB
Procedure: as §1, §2

[10] = system: E. faecalis OG1RF (ATCC 47077); assay: MIC, broth microdilution in CA-MHB; type: cell-based; details: CA-MHB
Procedure: as §1, §2

[11] = phosphate-buffered saline; below 10 μg mL^−1 estimated by turbidimetric screening
Procedure: The solubility of all the TPP derivatives was determined in phosphate-buffered saline (PBS) (Table S3).

Row | Compound | MIC [1] | IC50 [2] | MIC SA [3] | MIC AB [4] | MIC EC [5] | MIC FAC [6] | MIC KP [7] | MIC MRSA [8] | MIC ([8]; towards MRSA, Table 3) | MIC PA [9] | MIC FAE [10] | MIC M. abscesses [1] | solubility in PBS [11] | MIC ([4]; Acinetobacter baumannii, ATCC17978, read-out: MIC AB) | MIC ([5]; Escherichia coli, ATCC10798, read-out: MIC EC) | MIC ([6]; read-out: MIC FAC) | MIC ([8]; Staphylococcus aureus, ATCC BAA-1717 / MRSA, read-out: MIC MRSA)
1 | NCC[C@H](O)C(=O)N[C@@H]1C[C@H](N)[C@@H](O[C@H]2O[C@H](CN)[C@@H](O)[C@H](O)[C@H]2O)[C@H](O)[C@H]1O[C@H]1O[C@H](CO)[C@@H](O)[C@H](N)[C@H]1O [Amikacin, reference compound] | 8 mg/L (≈ 13.7 µM) | – | – | – | – | – | – | – | – | – | – | – | – | – | – | – | –
2 | C[N+](C)(C)CCCCOc1ccc(/C=C/c2ccc(OCCCC[N+](C)(C)C)cc2)cc1.[I-].[I-] [Compound D4, reference compound] | – | 548 mg/L | >64 mg/L | >64 mg/L | > 64 mg/L and 128 mg/L | 64 mg/L | >64 mg/L | >64 mg/L | > 64 mg/L | >64 mg/L | 128 mg/L | – | – | – | – | – | –
3 | C(=C\c1ccc(OCCCC[P+](c2ccccc2)(c2ccccc2)c2ccccc2)cc1)/c1ccc(OCCCC[P+](c2ccccc2)(c2ccccc2)c2ccccc2)cc1.[I-].[I-] [Compound D4P] | – | 8 mg/L | 4 mg/L | 32 mg/L | 4 mg/L and 8 mg/L | 1 mg/L | 32 mg/L | 2 mg/L | 2 mg/L | 16 mg/L | 1 mg/L | 32 mg/L | 0.076 mg/mL | – | – | – | –
4 | C[N+](C)(C)CCCCCCOc1ccc(/C=C/c2ccc(OCCCCCC[N+](C)(C)C)cc2)cc1.[I-].[I-] [Compound D6, reference compound] | – | 39 mg/L | 32 mg/L | >64 mg/L | 16 mg/L | 8 mg/L | >64 mg/L | 32 mg/L | 32 mg/L | >64 mg/L | 32 mg/L | – | – | – | – | – | –
5 | C(=C\c1ccc(OCCCCCC[P+](c2ccccc2)(c2ccccc2)c2ccccc2)cc1)/c1ccc(OCCCCCC[P+](c2ccccc2)(c2ccccc2)c2ccccc2)cc1.[I-].[I-] [Compound D6P] | – | 13 mg/L | 2 mg/L | >16 mg/L | 2 mg/L | 1 mg/L | >16 mg/L | 2 mg/L | 2 mg/L | 8 mg/L | 1 mg/L | 16 mg/L | 0.018 mg/mL | – | – | – | –
6 | C[N+](C)(C)CCCCCCCCOc1ccc(/C=C/c2ccc(OCCCCCCCC[N+](C)(C)C)cc2)cc1.[I-].[I-] [Compound D8, reference compound] | – | 11 mg/L | 8 mg/L | 32 mg/L | 4 mg/L | 1 mg/L | 64 mg/L | 8 mg/L | 8 mg/L | >64 mg/L | 4 mg/L | – | – | – | – | – | –
7 | C(=C\c1ccc(OCCCCCCCC[P+](c2ccccc2)(c2ccccc2)c2ccccc2)cc1)/c1ccc(OCCCCCCCC[P+](c2ccccc2)(c2ccccc2)c2ccccc2)cc1.[I-].[I-] [Compound D8P] | – | – | – | – | – | – | – | – | – | – | – | – | 0.004 mg/mL | – | – | – | –
8 | COc1cc(/C=C/c2ccc(OCCCCCC[P+](CCCO)(CCCO)CCCO)c(OC)c2)ccc1OCCCCCC[P+](CCCO)(CCCO)CCCO.[I-].[I-] [DM6THPP] | – | >1024 mg/L | >64 mg/L | >64 mg/L | >64 mg/L | >64 mg/L | >64 mg/L | >64 mg/L | > 64 mg/L | >64 mg/L | >64 mg/L | – | – | – | – | – | –
9 | COc1cc(/C=C/c2ccc(OCCCCCCCC[P+](c3ccccc3)(c3ccccc3)c3ccccc3)c(OC)c2)ccc1OCCCCCCCC[P+](c1ccccc1)(c1ccccc1)c1ccccc1.[I-].[I-] [DM8P] | – | 10 mg/L | >4 mg/L | >4 mg/L | >4 mg/L | 1 mg/L | >4 mg/L | 4 mg/L | 4 mg/L | >4 mg/L | 1 mg/L | 64 mg/L | 0.004 mg/mL | – | – | – | –
10 | CC(=O)NC[C@H]1CN(c2ccc(N3CCOCC3)c(F)c2)C(=O)O1 [Linezolid, reference compound] | 8 mg/L (≈ 23.7 µM) | – | – | – | – | – | – | – | – | – | – | – | – | – | – | – | –
11 | CN[C@H](CC(C)C)C(=O)N[C@H]1C(=O)N[C@@H](CC(N)=O)C(=O)N[C@H]2C(=O)N[C@H]3C(=O)N[C@H](C(=O)N[C@H](C(=O)O)c4cc(O)cc(O)c4-c4cc3ccc4O)[C@H](O)c3ccc(c(Cl)c3)Oc3cc2cc(c3O[C@@H]2O[C@H](CO)[C@@H](O)[C@H](O)[C@H]2O[C@H]2C[C@](C)(N)[C@H](O)[C@H](C)O2)Oc2ccc(cc2Cl)[C@H]1O [Vancomycin, reference compound] | – | – | – | – | – | – | >128 mg/L | – | – | – | – | – | – | > 128 mg/L | > 128 mg/L | 1 mg/L (≈ 0.69 µM) | 1 mg/L (≈ 0.69 µM)
12 | Polymyxin B [reference compound] | – | – | – | 4 mg/L | 1 mg/L | – | 2 mg/L | – | – | 2 mg/L | – | – | – | – | – | – | –
